{"source": "patent US12383534B2", "about": "“Methods for treating cancer” (REGENTS OF THE UNIVERSITY OF MINNESOTA, priority 2021, dated 2025)", "key": {"[1]": {"tested_on": "NCC-CDS-X1 cells (CIC-DUX4 sarcoma cell line)", "test": "Cell viability (ATP) assay in NCC-CDS-X1 cells", "assay_type": "cell-based, human", "method": "Basal media were purchased from HyClone, fetal bovine serum (FBS) was from PeakSerum (Ps-FB3, lot 293Q16), and Glutamax (Glu) and Penicillin/Streptomycin (P/S) were from GIBCO. NCC-CDS-X1 (CIC-DUX4 sarcoma cell line, a generous gift from Tadashi Kondo) cell line was cultured in RPMI with 10% FBS, Glu and P/S, Kitra-SRS (CIC-DUX4 sarcoma cell line, a generous gift from Hidetatsu Otani), 3T3, 293T and C2C12 cell lines were cultured in DMEM/10% FBS/Glu/P/S. The immortalized human myoblast LHCN-M2 cell line was cultured in proliferation medium: F10 supplemented with 20% FBS, 2-mercaptoethanol 1× (GIBCO), 10^−9 M dexamethasone (Sigma), 10 ng/mL bFGF (Peprotech), and Glu/P/S. All cells were cultured at 37° C. in a 5% CO2 atmosphere.\nCell lines were plated in a 96 well dish (1×10^5 cells/well), and the following day were treated with iP300w or its stereoisomers. ATP assays were performed using CellTiter-Glo® Luminescent Cell Viability Assay (Promega) according to the manufacturer's instructions. Luminescence was analyzed on POLARstar Optima Microplate Reader (BMG Labtech, Offenburg, Germany).\nThe activity of the various iP300w stereoisomers against NCC-CDS-X1 cells was evaluated. Cultures were treated with serial dilutions, ranging from 0.003 μM to 3.0 μM, for up to 96 hours. In cells treated with iP300w, a significant decrease in cell viability was evident at the lowest concentration (0.003 μM) at 48 and 96 hours (FIG. 3A). The effect was dose- and time-dependent. […] (FIG. 2B and FIG. 9)."}, "[2]": {"tested_on": "CIC-DUX4 induced transcriptome in NCC-CDS-X1 cells", "test": "RNA-seq transcriptional profile of NCC-CDS-X1 cells", "assay_type": "cell-based, human", "conditions": "for number of genes changed by more than 10-fold / number of down-regulated genes (2-fold or greater) / number of up-regulated genes (2-fold or greater): 0.3 μM", "method": "RNA was extracted using an RNA extraction kit (Zymo) and cDNA was made using 0.5 μg total RNA with oligo-dT primer and Verso cDNA Synthesis Kit (Thermo Scientific) following the manufacturer's instructions. qPCRs were performed by using Premix Ex Taq (Probe qPCR, Takara) or SYBR-green. Gene expression levels were normalized to that of GAPDH and analyzed with 7500 System Software using the ACT method (Applied Biosystems). RNA-seq library preparation was done with 500 ng total RNA from NCC-CDS-X1 cells treated for 4 or 24 hours with iP300w (0.3 μM) using the Swift Rapid RNA Library Kit (SwiftBioscience). 36 base paired-end sequencing was performed on an Illumina NextSeq instrument at the University of Minnesota Genomics Center.\nPaired-end Illumina sequencing reads were trimmed with TrimGalore (0.6.0) and transcript abundance was quantified using the human Gencode annotations (v34) using Salmon (v 1.2.1) with the GC-bias correction option. Counts were imported into R (v 4.0.2) using tximeta (v 1.6.3). Differentially expressed genes were identified with DESeq2 (v 1.28.1) and figures were made with the ComplexHeatmap (v 2.4.3), clusterProfiler (v 3.16.1) and ggplot2 (v 3.3.2) R packages. Sequencing reads and processed data have been deposited into GEO under the accession number GSE165729.\nNext, global transcriptional profiles of NCC-CDS-X1 cells treated with iP300w were investigated. […] Among these differentially expressed genes, 170 and 244 were changed by more than 10-fold at 4 hour and 24 hours, respectively (FIG. 3A)."}}, "data": [{"smiles": "CNC(=O)Cn1cc(-c2ccc3c(c2)[C@H](F)C[C@]32NC(=O)N(CC(=O)N(Cc3ccc(F)cc3)[C@@H](C)C(F)(F)F)C2=O)cn1", "note": "(single isomer, unassigned) [iP300w]", "values": [{"measurement": "effective concentration on CDS cells", "setting": "[1]; CDS cells, studies herein", "value": 0.003, "unit": "µM"}, {"measurement": "lowest concentration with significant decrease in cell viability", "setting": "[1]; NCC-CDS-X1, 48 and 96 hours, serial dilutions 0.003 to 3.0 μM", "value": 0.003, "unit": "µM"}, {"measurement": "lowest effective concentration in cell viability assay", "setting": "[1]; NCC-CDS-X1, day 2", "value": 0.003, "unit": "µM"}, {"measurement": "activity relative to A-485 in the cell-based assays", "setting": "[1]; cell-based assays", "value": "about two orders of magnitude more active than A-485"}, {"measurement": "number of genes changed by more than 10-fold", "setting": "[2]; 4 hour", "value": 170, "unit": "genes"}, {"measurement": "number of down-regulated genes (2-fold or greater)", "setting": "[2]; 4 hours post-treatment", "value": 1182, "unit": "genes"}, {"measurement": "number of up-regulated genes (2-fold or greater)", "setting": "[2]; 4 hours post-treatment", "value": 872, "unit": "genes"}, {"measurement": "number of genes changed by more than 10-fold", "setting": "[2]; 24 hours", "value": 244, "unit": "genes"}, {"measurement": "number of down-regulated genes (2-fold or greater)", "setting": "[2]; 24 hours post-treatment", "value": 2042, "unit": "genes"}, {"measurement": "number of up-regulated genes (2-fold or greater)", "setting": "[2]; 24 hours post-treatment", "value": 1658, "unit": "genes"}, {"measurement": "effect on p21 (CDKN1A) expression", "setting": "[2]; 24 hours", "value": "upregulated in the 24 hours"}, {"measurement": "effect on key transformation-regulatory genes ETV1, ETV4 and CCNE1", "setting": "[2]; set of 165 CIC-DUX4 targets, 4 hours", "value": "significantly downregulated within 4 hours"}, {"measurement": "effect on CIC-DUX4 targets", "setting": "[2]; set of 165 CIC-DUX4 targets, 24 hours", "value": "vast majority of CIC-DUX4 targets to be downregulated"}]}]}
